Results from the supplement of paper PMC10307832.

Legend:
Assay in all cases: relative viability (nuclei count vs DMSO), 5 days (fraction); higher = more cells survive
Dabrafenib + Lapatinib = compound: CC(C)(C)c1nc(-c2cccc(NS(=O)(=O)c3c(F)cccc3F)c2F)c(-c2ccnc(N)n2)s1 [Dabrafenib] + CS(=O)(=O)CCNCc1ccc(-c2ccc3ncnc(Nc4ccc(OCc5cccc(F)c5)c(Cl)c4)c3c2)o1 [Lapatinib] (partner 2 µM)
Outline: (§1)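 Five library-drug doses in √10 steps were combined with a fixed anchor-drug dose, or a single drug was given alone, by pin tool to lung cancer cell lines in 1536-well plates the day after seeding. Nuclei were stained and counted after 5 days. Relative viability is the nuclei count in treated wells over that in vehicle wells, taken as the median of duplicate plates.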

VX-702 + Tozasertib = compound: NC(=O)c1ccc(N(C(N)=O)c2c(F)cccc2F)nc1-c1ccc(F)cc1F [VX-702] + Cc1cc(Nc2cc(N3CCN(C)CC3)nc(Sc3ccc(NC(=O)C4CC4)cc3)n2)n[nH]1 [Tozasertib] (partner 0.1 µM)
Outline: as §1

VX-702 + Alpelisib = compound: NC(=O)c1ccc(N(C(N)=O)c2c(F)cccc2F)nc1-c1ccc(F)cc1F [VX-702] + Cc1nc(NC(=O)N2CCC[C@H]2C(N)=O)sc1-c1ccnc(C(C)(C)C(F)(F)F)c1 [Alpelisib] (partner 2 µM)
Outline: as §1

VX-702 + Olaparib = compound: NC(=O)c1ccc(N(C(N)=O)c2c(F)cccc2F)nc1-c1ccc(F)cc1F [VX-702] + O=C(c1cc(Cc2n[nH]c(=O)c3ccccc23)ccc1F)N1CCN(C(=O)C2CC2)CC1 [Olaparib] (partner 8 µM)
Outline: as §1

Cell Line | relative viability (Dabrafenib + Lapatinib; first compound 0.003 µM) | relative viability (Dabrafenib + Lapatinib; first compound 0.009487 µM) | relative viability (Dabrafenib + Lapatinib; first compound 0.03 µM) | relative viability (Dabrafenib + Lapatinib; first compound 0.09487 µM) | relative viability (Dabrafenib + Lapatinib; first compound 0.3 µM) | relative viability (VX-702 + Tozasertib; first compound 0.02 µM) | relative viability (VX-702 + Tozasertib; first compound 0.2 µM) | relative viability (VX-702 + Tozasertib; first compound 0.6325 µM) | relative viability (VX-702 + Tozasertib; first compound 2 µM) | relative viability (VX-702 + Alpelisib; first compound 0.02 µM) | relative viability (VX-702 + Alpelisib; first compound 0.2 µM) | relative viability (VX-702 + Alpelisib; first compound 0.6325 µM) | relative viability (VX-702 + Alpelisib; first compound 2 µM) | relative viability (VX-702 + Olaparib; first compound 0.02 µM) | relative viability (VX-702 + Olaparib; first compound 0.2 µM) | relative viability (VX-702 + Olaparib; first compound 0.6325 µM) | relative viability (VX-702 + Olaparib; first compound 2 µM)
NCI-H1993 | 0.696 | 0.729 | 0.754 | 0.713 | 0.882 | 0.525 | 0.591 | 0.623 | 0.806 | 0.665 | 0.74 | 0.628 | 0.674 | 0.5 | 1.06 | 1.06 | 1.05
NCI-H2405 | – | 0.804 | – | 0.853 | 0.937 | 0.816 | 0.724 | 0.717 | 0.726 | 0.672 | 0.766 | 0.774 | 0.949 | 0.931 | 0.805 | 0.897 | 0.901
NCI-H661 | 0.471 | 0.486 | 0.364 | 0.458 | 0.455 | 0.35 | 0.345 | 0.352 | 0.35 | 0.536 | 0.364 | 0.338 | 0.997 | 0.752 | 0.73 | 0.756 | 0.798
HCC-366 | – | 1.08 | 0.776 | 1.05 | 1.2 | 0.156 | 0.095 | 0.0851 | 0.0835 | 0.37 | 0.369 | 0.296 | 0.463 | 0.409 | 0.361 | 0.353 | 0.269
